{"source": "ChEMBL document CHEMBL2384916", "about": "“Synthesis and in vitro evaluation of a PDT active BODIPY-NLS conjugate” (Bioorg Med Chem Lett, 2013)", "key": {"[1]": {"experiment": "Drug uptake in endoplasmic reticulum of human T24 cells at 100 nM after 30 mins by confocal microscopic analysis", "assay_type": "ADME, cell-based", "conditions": "t-24, 0.5 h, 0.1 µM; call rule not given here"}, "[2]": {"experiment": "Drug uptake in lysosome of human T24 cells at 100 nM after 30 mins by confocal microscopic analysis", "assay_type": "ADME, cell-based", "conditions": "t-24, 0.5 h, 0.1 µM"}, "[3]": {"system": "T-24", "experiment": "Cytotoxicity against human T24 cells assessed as growth inhibition after 24 hrs by MTT assay in absence of light", "assay_type": "cell-based", "conditions": "T-24, 24 h"}, "[4]": {"system": "T-24", "experiment": "Phototoxicity against human T24 cells assessed as growth inhibition incubated for 4 hrs followed by irradiation for 15 mins measured after 24 hrs by MTT assay", "assay_type": "functional, cell-based", "conditions": "T-24, light or radiation study"}, "[5]": {"experiment": "Drug uptake in nucleus of human T24 cells at 100 nM after 30 mins by confocal microscopic analysis", "assay_type": "ADME, cell-based", "conditions": "t-24, 0.5 h, 0.1 µM"}}}
{"smiles": "CC1=C(I)C(C)=[N+]2C1=C(c1ccc(-c3cn(CC(=O)OC(C)(C)C)nn3)cc1)c1c(C)c(I)c(C)n1[B-]2(F)F", "values": [{"measurement": "Drug uptake", "setting": "[1]", "value": "Not Active"}, {"measurement": "Drug uptake", "setting": "[2]", "value": "Active"}, {"measurement": "IC50", "setting": "[3]", "value": "> 10000", "unit": "nM"}, {"measurement": "IC50", "setting": "[4]", "value": 42, "unit": "nM"}, {"measurement": "Drug uptake", "setting": "[5]", "value": "Not Active"}]}
{"smiles": "CC1=C(I)C(C)=[N+]2C1=C(c1ccc(-c3cn(CC(=O)N4CCC[C@H]4C(=O)N[C@@H](CCCCN)C(=O)N[C@@H](CCCCN)C(=O)N[C@@H](CCCCN)C(=O)N[C@@H](CCCNC(=N)N)C(=O)N[C@@H](CCCCN)C(=O)N[C@H](C(N)=O)C(C)C)nn3)cc1)c1c(C)c(I)c(C)n1[B-]2(F)F", "values": [{"measurement": "Drug uptake", "setting": "[1]", "value": "Active"}, {"measurement": "Drug uptake", "setting": "[2]", "value": "Active"}, {"measurement": "IC50", "setting": "[3]", "value": "> 10000", "unit": "nM"}, {"measurement": "IC50", "setting": "[4]", "value": 16, "unit": "nM"}, {"measurement": "Drug uptake", "setting": "[5]", "value": "Not Active"}]}
